Experimental data from US8367328B2, “Method for synthesizing DNA” (Takara Bio Inc., priority 1998, dated 2013).

Tests used:
[1] = target: T1, KOD DNA Polymerase (Thermococcus kodakarensis, UniProt P77933, DEL407-766/DEL852-1388); test: PCR with KOD DNA Polymerase (α-type) in the presence of acidic substances; assay type: biochemical, Pyrococcus sp.; settings: 10 kb fragment, 100 pg λDNA, 30 cycles 98°C 5 s–68°C 3 min
T1 construct: purchased TOYOBO CO., LTD
Description: (1) Using sodium alginate, sodium hyaluronate (manufactured by Seikagaku Kogyo), or κ carrageenan (manufactured by Sigma), the effects of these acidic substances on α-type DNA polymerase were examined. A reaction mixture comprising λDNA as a template, primers λ1 and λ8 as a primer pair, and KOD DNA Polymerase (manufactured by TOYOBO CO., LTD.) as DNA polymerase was prepared, and PCR was carried out. The composition of the reaction mixture is as follows. Composition of Reaction Mixture: KOD DNA Polymerase Buffer I (manufactured by TOYOBO CO., LTD.) 0.2 mM each of dATP, dCTP, dGTP and dTTP, 0.625 U of KOD DNA Polymerase, 100 pg of λDNA, and 5 pmol each of primers λ1 and λ8 (a final volume being 25 μl). Further, 1 μg or 2.5 μg of sodium alginate, 0.1 μg or 0.5 μg of sodium hyaluronate, or 0.1 μg or 0.25 μg of κ carrageenan was respectively added to the above reaction mixture.
(§1) The reaction in 30 cycles was carried out for each of these reaction mixtures, wherein one cycle of reaction comprises a process consisting of 98° C., 5 seconds—68° C., 3 minutes. Thereafter, 5 μl of the resulting reaction mixture was subjected to electrophoresis on 1% agarose gel containing ethidium bromide in an amount of 0.00005%, whereby an amplified fragment was confirmed.
(2) The effects on α-type DNA polymerase were also examined in the same manner as in item (1) above for sodium alginate, κ carrageenan, sodium heparan sulfate (manufactured by Sigma), sodium dermatan sulfate (manufactured by Sigma), potassium polyvinyl sulfate (manufactured by nacalaitesque) or sodium polystyrenesulfonate (two kinds: average molecular weights of 5,400 and 35,000, all manufactured by nacalaitesque). A reaction mixture comprising λDNA as a template, primers λ1 and λ8 as a primer pair, and KOD DNA Polymerase as DNA polymerase was prepared, and PCR was carried out. The composition of the reaction mixture is as follows. Composition of Reaction Mixture: KOD DNA Polymerase Buffer II (manufactured by TOYOBO CO., LTD.) 0.2 mM each of dATP, dCTP, dGTP and dTTP, 1.25 U of KOD DNA Polymerase, 100 pg of λDNA, and 10 pmol each of primers λ1 and λ8 (a final volume being 50 μl). Further, 2.5 μg or 5 μg of sodium alginate, 0.25 μg or 0.5 μg of κ carrageenan, or 125 ng, 250 ng or 375 ng of sodium dermatan sulfate, 500 ng of sodium heparan sulfate, 10 ng of potassium polyvinyl sulfate, 2.5 ng or 5 ng of sodium polystyrenesulfonate (average molecular weight: 5,400), or 5 ng of sodium polystyrenesulfonate (average molecular weight: 35,000) was respectively added to the above reaction mixture.

[2] = target: T2, Pfu DNA Polymerase II (Pyrococcus furiosus, UniProt P81409+P81412); test: PCR with Pfu DNA Polymerase II in the presence of acidic substances (λDNA template); assay type: biochemical; settings: 0.5 kb fragment; 100 pg λDNA, primers λ1/λ2, 25 cycles 98°C 5 s–66°C 15 s; amount added 10 ng
T2 construct: made in house; host or cells: Escherichia coli JM109/pFU1001 (FERM BP-5579)
T2 sequence (P81409 1-1263): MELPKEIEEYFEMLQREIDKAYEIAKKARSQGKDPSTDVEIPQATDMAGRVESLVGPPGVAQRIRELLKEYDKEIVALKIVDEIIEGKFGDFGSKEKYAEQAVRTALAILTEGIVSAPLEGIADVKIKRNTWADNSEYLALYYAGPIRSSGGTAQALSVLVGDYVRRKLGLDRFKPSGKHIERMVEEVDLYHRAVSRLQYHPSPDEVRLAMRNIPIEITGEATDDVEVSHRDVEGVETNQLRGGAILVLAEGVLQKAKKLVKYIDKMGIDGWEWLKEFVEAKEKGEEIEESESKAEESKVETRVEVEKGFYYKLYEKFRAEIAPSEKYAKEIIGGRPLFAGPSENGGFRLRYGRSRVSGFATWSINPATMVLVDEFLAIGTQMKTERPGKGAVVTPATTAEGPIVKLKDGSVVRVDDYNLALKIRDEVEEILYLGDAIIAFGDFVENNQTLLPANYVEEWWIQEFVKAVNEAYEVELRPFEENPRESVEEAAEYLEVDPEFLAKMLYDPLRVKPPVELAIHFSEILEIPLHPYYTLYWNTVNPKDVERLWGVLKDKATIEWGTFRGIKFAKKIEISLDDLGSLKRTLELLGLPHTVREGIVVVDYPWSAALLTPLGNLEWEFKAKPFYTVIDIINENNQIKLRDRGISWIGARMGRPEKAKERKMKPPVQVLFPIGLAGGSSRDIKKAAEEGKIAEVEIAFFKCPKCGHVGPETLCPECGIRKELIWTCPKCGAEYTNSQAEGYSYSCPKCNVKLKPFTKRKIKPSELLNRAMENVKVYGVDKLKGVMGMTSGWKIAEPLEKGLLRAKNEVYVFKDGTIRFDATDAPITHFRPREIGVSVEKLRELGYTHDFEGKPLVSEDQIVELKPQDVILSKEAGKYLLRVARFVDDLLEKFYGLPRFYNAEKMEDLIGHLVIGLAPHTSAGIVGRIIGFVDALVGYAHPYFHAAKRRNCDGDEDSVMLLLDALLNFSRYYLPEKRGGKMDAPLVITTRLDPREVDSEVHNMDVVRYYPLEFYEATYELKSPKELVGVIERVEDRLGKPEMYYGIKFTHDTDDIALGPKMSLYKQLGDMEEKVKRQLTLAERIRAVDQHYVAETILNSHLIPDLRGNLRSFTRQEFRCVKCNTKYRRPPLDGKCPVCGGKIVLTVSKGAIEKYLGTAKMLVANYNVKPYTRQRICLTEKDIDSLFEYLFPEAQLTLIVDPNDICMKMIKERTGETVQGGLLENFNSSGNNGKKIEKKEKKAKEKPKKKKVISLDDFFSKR
T2 sequence (P81412 1-613): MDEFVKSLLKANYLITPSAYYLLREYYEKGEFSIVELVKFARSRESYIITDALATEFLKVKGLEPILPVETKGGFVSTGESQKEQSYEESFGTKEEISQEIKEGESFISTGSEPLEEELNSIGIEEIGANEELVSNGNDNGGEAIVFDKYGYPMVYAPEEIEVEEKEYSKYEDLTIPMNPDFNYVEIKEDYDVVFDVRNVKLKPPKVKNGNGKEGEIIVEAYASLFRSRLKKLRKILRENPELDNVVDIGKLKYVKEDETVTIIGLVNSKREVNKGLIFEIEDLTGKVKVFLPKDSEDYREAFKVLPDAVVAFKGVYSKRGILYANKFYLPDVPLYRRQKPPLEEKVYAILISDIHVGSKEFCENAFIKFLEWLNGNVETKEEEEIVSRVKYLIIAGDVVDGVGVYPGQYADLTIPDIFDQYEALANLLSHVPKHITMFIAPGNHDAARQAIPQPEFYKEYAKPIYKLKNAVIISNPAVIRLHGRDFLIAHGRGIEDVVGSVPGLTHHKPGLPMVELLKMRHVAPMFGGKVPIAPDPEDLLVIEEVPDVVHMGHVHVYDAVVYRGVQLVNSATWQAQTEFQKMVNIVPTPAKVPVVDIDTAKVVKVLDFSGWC
Description: A reaction mixture comprising λDNA as a template, primers λ1 and λ3 as a primer pair, and Pfu DNA Polymerase II as DNA polymerase was prepared, and PCR was carried out. The composition of the reaction mixture is as follows.
10 mM Tris-hydrochloric acid (pH 9.2), 75 mM potassium chloride, 6 mM magnesium chloride, 0.4 mM each of dATP, dCTP, dGTP and dTTP, 0.01% BSA, 1.25 U of Pfu DNA Polymerase II, 500 pg of λDNA, and 5 pmol each of primers λ1 and λ3 (a final volume being 25 μl). […]
Using the sulfated-fucose-containing Polysaccharide-F obtained in Example 6 described above, dextran sulfate powder (manufactured by Onco), or sodium alginate (100 to 150 centipoises, manufactured by Wako Pure Chemicals), the effects of these acidic substances on the activity of Pfu DNA Polymerase II were examined. A reaction mixture comprising λDNA as a template, primers λ1 and λ2 as a primer pair, and Pfu DNA Polymerase II as DNA polymerase was prepared, and PCR was carried out. The composition of the reaction mixture is as follows.
(§2) 10 mM Tris-hydrochloric acid, pH 9.2, 75 mM potassium chloride, 6 mM magnesium chloride, 0.4 mM each of dATP, dCTP, dGTP and dTTP, 0.01% BSA, 1.25 U of Pfu DNA Polymerase II, 100 pg of λDNA, and 5 pmol each of primers λ1 and λ2 (a final volume being 25 μl). Further, 10 ng of the sulfated-fucose-containing polysaccharide-F, 10 ng of dextran sulfate powder, or 1 μg of sodium alginate was respectively added to the above reaction mixture.
as §1, with “25” for “30”, “seconds—66°” for “seconds—68°”, “15 seconds.” for “3 minutes.”
Further, studies were conducted on the effects of the sulfated-fucose-containing polysaccharide-F obtained in Example 6 described above, the sulfated-fucose-containing polysaccharide-U obtained in Example 7 described above, or sodium polyglutamate (manufactured by Sigma) as an acidic substance. A reaction mixture for PCR was prepared in the same manner as described above except for changing the amount of template λDNA to 500 pg and the primer pairs to primers λ1 and λ3. Five nanograms of the sulfated-fucose-containing polysaccharide-F, 5 ng, 10 ng, 20 ng or 30 ng each of the sulfated-fucose-containing polysaccharide-U, or 250 ng, 500 ng, 750 ng or 1000 ng each of sodium polyglutamate was respectively added to the above reaction mixture.
The reaction was carried out in 30 cycles, wherein one cycle of reaction comprises a process consisting of 98° C., 5 seconds—66° C., 15 seconds. After the termination of the reaction, 5 μl of the resulting reaction mixture was subjected to electrophoresis on 1% agarose gel containing ethidium bromide in an amount of 0.00005%, whereby an amplified fragment was confirmed.
Using the sulfated-fucose-containing polysaccharide-F obtained in Example 6 described above, the effects on the activity of Pfu DNA Polymerase II were examined. A reaction mixture comprising λDNA as a template, primers λ1 and λ2 as a primer pair, and Pfu DNA Polymerase II as DNA polymerase was prepared, and PCR was carried out. The composition of the reaction mixture is as follows.
as §2, with “500” for “100”, “polysaccharide-F” for “polysaccharide-F, 10 ng of dextran sulfate powder, or 1 μg of sodium alginate”
The reaction in 30 cycles was carried out for each of these reaction mixtures, wherein one cycle of reaction comprises a process consisting of 98° C., 5 seconds—66° C., 15 seconds. […]

[3] = Buffer I, 0.625 U KOD, primers λ1/λ8, 25 μl, amount added 0.1 μg

T1 sequence (P77933 other isoform, or with tags, fused parts or gaps DEL407-766/DEL852-1388): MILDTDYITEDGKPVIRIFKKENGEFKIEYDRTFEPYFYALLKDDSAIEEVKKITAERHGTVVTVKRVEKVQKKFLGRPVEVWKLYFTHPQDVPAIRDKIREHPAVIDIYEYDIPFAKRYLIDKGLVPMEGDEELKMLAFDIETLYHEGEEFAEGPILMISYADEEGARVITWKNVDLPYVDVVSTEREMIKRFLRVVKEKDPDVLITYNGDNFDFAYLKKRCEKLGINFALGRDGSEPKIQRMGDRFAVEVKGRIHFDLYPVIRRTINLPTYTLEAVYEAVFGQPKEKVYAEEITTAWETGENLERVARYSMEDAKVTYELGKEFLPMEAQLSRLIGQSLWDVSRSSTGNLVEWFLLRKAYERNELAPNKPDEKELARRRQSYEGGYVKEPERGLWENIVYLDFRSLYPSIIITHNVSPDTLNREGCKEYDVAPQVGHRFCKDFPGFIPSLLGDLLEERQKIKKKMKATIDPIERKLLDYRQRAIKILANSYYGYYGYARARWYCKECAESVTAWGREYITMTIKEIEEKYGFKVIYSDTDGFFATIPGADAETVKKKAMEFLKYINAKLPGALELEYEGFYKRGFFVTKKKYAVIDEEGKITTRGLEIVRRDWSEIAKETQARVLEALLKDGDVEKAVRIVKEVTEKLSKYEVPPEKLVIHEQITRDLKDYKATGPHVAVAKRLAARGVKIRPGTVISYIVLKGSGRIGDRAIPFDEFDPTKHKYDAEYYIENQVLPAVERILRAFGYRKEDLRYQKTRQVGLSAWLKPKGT

For sodium heparan sulfate, the “Amplification Results” value ([1]; Buffer II, 1.25 U KOD, primers λ1/λ8, 50 μl, amount added 500 ng) was “+ (Amplification being observed)”.

With “dextran sulfate [Dextran Sulfate Powder]” the “Amplification Results” value [2] was “+ (Amplification being observed)”.

In the case of κ carrageenan, the “Amplification Results” value [1, 3] is reported as “+ (Amplification being observed)”, the “Amplification Results” value ([1]; Buffer I, 0.625 U KOD, primers λ1/λ8, 25 μl, amount added 0.25 μg) is reported as “+ (Amplification being observed)” and the “Amplification Results” value ([1]; Buffer II, 1.25 U KOD, primers λ1/λ8, 50 μl, amount added 0.25 μg) is reported as “++ (Intensive amplification being observed)”. For the same substance, the “Amplification Results” value ([1]; Buffer II, 1.25 U KOD, primers λ1/λ8, 50 μl, amount added 0.5 μg) was “++ (Intensive amplification being observed)”.

For sodium dermatan sulfate, the “Amplification Results” value ([1]; Buffer II, 1.25 U KOD, primers λ1/λ8, 50 μl, amount added 125 ng) was “+ (Amplification being observed)”, the “Amplification Results” value ([1]; Buffer II, 1.25 U KOD, primers λ1/λ8, 50 μl, amount added 250 ng) was “+ (Amplification being observed)” and the “Amplification Results” value ([1]; Buffer II, 1.25 U KOD, primers λ1/λ8, 50 μl, amount added 375 ng) was “+ (Amplification being observed)”.

With sodium hyaluronate the “Amplification Results” value [1, 3] was “+ (Amplification being observed)” and the “Amplification Results” value ([1]; Buffer I, 0.625 U KOD, primers λ1/λ8, 25 μl, amount added 0.5 μg) was “+ (Amplification being observed)”.
